Data taken from patent publication EP4644396A1 (Visionpharma (Nantong) Co., Ltd, priority 2022, dated 2024).
Like-named read-outs stand apart in the source and are kept apart here.

Columns and labels:
human TLR7 = target: T1, human TLR7 (Homo sapiens, UniProt Q9NYK1); assay: HEK-Blue hTLR7 SEAP reporter gene inhibition assay; format: cell-based
T1 sequence (Q9NYK1 27-1049): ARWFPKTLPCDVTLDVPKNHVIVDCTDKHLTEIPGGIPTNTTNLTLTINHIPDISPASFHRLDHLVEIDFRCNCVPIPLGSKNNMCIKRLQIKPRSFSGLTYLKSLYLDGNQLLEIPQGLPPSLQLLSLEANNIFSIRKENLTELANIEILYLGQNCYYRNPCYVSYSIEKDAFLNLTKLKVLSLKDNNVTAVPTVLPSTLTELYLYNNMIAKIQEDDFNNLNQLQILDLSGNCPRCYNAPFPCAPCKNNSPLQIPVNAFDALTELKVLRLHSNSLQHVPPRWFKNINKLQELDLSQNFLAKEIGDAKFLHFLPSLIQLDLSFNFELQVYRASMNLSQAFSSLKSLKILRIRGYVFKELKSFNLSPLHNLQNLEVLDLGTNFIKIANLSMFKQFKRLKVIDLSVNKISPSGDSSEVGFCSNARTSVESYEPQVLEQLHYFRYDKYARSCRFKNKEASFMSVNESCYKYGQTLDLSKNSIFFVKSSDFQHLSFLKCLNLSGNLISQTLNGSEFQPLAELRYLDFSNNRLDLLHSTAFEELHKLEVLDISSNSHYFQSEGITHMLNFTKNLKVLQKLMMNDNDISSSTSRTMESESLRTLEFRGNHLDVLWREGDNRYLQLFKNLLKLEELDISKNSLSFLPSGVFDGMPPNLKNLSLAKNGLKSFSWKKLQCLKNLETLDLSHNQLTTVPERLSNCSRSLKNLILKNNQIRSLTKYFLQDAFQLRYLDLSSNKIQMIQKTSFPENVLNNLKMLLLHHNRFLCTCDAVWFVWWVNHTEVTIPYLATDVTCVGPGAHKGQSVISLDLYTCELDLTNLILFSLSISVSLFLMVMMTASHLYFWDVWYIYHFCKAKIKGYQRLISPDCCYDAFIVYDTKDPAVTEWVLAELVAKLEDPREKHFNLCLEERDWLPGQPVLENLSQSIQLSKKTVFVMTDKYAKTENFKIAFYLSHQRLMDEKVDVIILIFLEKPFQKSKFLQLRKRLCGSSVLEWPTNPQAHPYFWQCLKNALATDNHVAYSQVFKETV
Method in brief: (§1)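 HEK-Blue cells stably expressing hTLR7 (80,000/well) or hTLR8 (60,000/well), SEAP under IFN-β minimal promoter with five NF-κB/AP-1 sites. Compounds (0.001–36 µM final) preincubated 15 min, then 10 µM ligand (Gardiquimod for TLR7) for 20 h. SEAP read with Quanti-Blue; IC50 calculated.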

human TLR8 = target: T2, human TLR8 (Homo sapiens, UniProt Q9NR97); assay: HEK-Blue hTLR8 SEAP reporter gene inhibition assay; format: cell-based
T2 construct: expressed in transfected cells
T2 sequence (Q9NR97 27-1041): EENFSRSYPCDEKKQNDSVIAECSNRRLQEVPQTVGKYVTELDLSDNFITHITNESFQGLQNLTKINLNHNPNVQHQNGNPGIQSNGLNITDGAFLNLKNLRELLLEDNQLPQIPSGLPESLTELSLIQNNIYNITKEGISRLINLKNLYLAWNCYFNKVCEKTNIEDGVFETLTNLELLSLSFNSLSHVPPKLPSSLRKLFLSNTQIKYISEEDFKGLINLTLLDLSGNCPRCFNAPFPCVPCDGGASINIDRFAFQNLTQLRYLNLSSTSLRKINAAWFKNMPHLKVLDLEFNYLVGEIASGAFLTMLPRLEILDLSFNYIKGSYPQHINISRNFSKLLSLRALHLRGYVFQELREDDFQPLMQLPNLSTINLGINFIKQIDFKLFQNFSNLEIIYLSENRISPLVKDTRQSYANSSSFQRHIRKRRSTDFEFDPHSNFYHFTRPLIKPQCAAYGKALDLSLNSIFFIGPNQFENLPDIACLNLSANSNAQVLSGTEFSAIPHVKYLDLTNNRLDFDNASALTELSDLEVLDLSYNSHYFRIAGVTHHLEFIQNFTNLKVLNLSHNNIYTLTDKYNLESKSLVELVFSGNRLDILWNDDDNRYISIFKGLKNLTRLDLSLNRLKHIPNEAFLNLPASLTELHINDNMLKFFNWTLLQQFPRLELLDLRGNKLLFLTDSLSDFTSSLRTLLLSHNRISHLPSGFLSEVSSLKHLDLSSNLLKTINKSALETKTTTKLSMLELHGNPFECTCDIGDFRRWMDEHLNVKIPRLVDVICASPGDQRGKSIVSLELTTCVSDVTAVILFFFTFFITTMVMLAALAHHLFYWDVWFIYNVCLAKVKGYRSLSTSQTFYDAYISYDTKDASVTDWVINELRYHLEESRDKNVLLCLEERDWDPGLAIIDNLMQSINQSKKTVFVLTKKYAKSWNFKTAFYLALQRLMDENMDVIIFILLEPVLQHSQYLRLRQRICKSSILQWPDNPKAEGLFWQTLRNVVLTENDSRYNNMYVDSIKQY
Method in brief: as §1

[1] = hTLR7 HEK-Blue cells, TLR7 ligand Gardiquimod 10 µM, 20 hours, SEAP by Quanti-blue, class symbols, read-out: HEK-Blue hTLR7 IC50
[2] = hTLR8 HEK-Blue cells, TLR8 ligand 10 µM, 20 hours, SEAP by Quanti-blue, class symbols, read-out: HEK-Blue hTLR8 IC50

Compound | IC50 (human TLR7; [1]) | IC50 (human TLR8; [2]) | IC50 (human TLR7; HEK-Blue hTLR7 IC50 (µM)) | IC50 (human TLR8; HEK-Blue hTLR8 IC50 (µM))
C[C@@H]1CN(c2ccc(C#N)n3ncc(F)c23)Cc2c3c(nn21)CNC(CCOC(C)(C)C)C3 (stereo partly drawn) [Example I-61, 4-((4R)-9-(2-(tert-butoxy)ethyl)-4-methyl-3,4,7,8,9,10-hexahydropyridine[3',4':3,4]pyrazole[1,5-a]pyrazine-2(1H)-yl)-3-fluoropyrazole[1,5-a]pyridine-7-caronitrile] | – | – | < 0.05 µM | > 0.1 µM
C[C@@H]1CN(c2ccc(C#N)n3ncc(F)c23)Cc2c3c(nn21)CCC(C)(N)C3 (single isomer, unassigned) [Example I-80a] | > 0.05 µM | > 0.1 µM | – | –
C[C@@H]1CN(c2ccc(C#N)n3ncc(F)c23)Cc2c3c(nn21)CN[C@@H](C)C3 [Example I-30a] | < 0.05 µM | < 0.1 µM | – | –
N-(tert-butyl)-2-((4R,9S)-2-(7-cyano-3-fluoropyrazolo[1,5-a]pyridin-4-yl)-4,9-dimethyl-1,2,3,4,9,10-hexahydropyrido[3',4':3,4]pyrazolo[1,5-a]pyrazin-8(7H)-yl)acetamide [Example I-154] | > 0.05 µM | > 0.1 µM | – | –
C[C@@H]1CN(c2ccc(C#N)n3ncc(F)c23)Cc2c3c(nn21)CN(Cc1cn[nH]c1)CC3 [Example I-28, (R)-4-(8-((1H-pyrazol-4-yl)methyl)-4-methyl-3,4,7,8,9,10-hexahydropyrido[3',4':3,4]pyrazolo[1,5-a]pyrazin-2(1H)-yl)-3-fluoropyrazolo[1,5-a]pyridine-7-carbonitrile] | > 0.05 µM | < 0.1 µM | – | –
CC1CNCc2c1nn1c2CN(c2ccc(C#N)n3ncc(F)c23)C[C@H]1C (stereo partly drawn) [Example I-12, 4-((7R)-4,7-dimethyl-1,3,4,7,8,10-hexahydropyrido[4',3':3,4]pyrazolo[1,5-a]pyrazin-9(2H)-yl)-3-fluoropyrazolo[1,5-a]pyridine-7-carbonitrile] | < 0.05 µM | < 0.1 µM | – | –
C[C@@H]1CN(c2ccc(C#N)n3ncc(F)c23)Cc2c3c(nn21)CN(CCC#N)[C@@H](C)C3 [Example I-129, 4-((4R,9S)-8-(2-cyanoethyl)-4,9-dimethyl-3,4,7,8,9,10-hexahydropyridine[3',4':3,4]pyrazole[1,5-a]pyrazine-2 (1 H)-yl)-3-fluoropyrazole [1,5-a] pyridine-7-nitrile] | – | – | < 0.05 µM | < 0.1 µM
C[C@@H]1CN(c2ccc(C#N)n3ncc(F)c23)Cc2c3c(nn21)CNC(Cc1ccn[nH]1)C3 (stereo partly drawn) [Example I-79, 4-((4R)-9-((1H-pyrazol-5-yl)methyl)-4-methyl-3,4,7,8,9,10-hexahydropyrido[3',4':3,4]pyrazolo[1,5-a]pyrazin-2(1H)-yl)-3-fluoropyrazolo[1,5-a]pyridine-7-carbonitrile] | < 0.05 µM | < 0.1 µM | – | –
C[C@@H]1CN(c2ccc(C#N)n3ncc(F)c23)Cc2c3c(nn21)CCNC3 [Example I-2, (R)-3-fluoro-4-(7-methyl-1,3,4,7,8,10-hexahydropyrido[4',3':3,4]pyrazolo[1,5-a]pyrazin-9(2H)-yl)pyrazolo[1,5-a]pyridine-7-carbonitrile] | < 0.05 µM | < 0.1 µM | – | –
C[C@@H]1CN(c2ccc(C#N)n3ncc(F)c23)Cc2c3c(nn21)CC(C)(N)CC3 (single isomer, unassigned) [Example I-71b] | > 0.05 µM | < 0.1 µM | – | –
CC1Cc2nn3c(c2CN1)CN(c1ccc(C#N)n2ncc(F)c12)C[C@H]3C (stereo partly drawn) [Example I-11, 4-((7R)-3,7-dimethyl-1,3,4,7,8,10-hexahydropyrido[4',3':3,4]pyrazolo[1,5-a]pyrazin-9(2H)-yl)-3-fluoropyrazolo[1,5-a]pyridine-7-carbonitrile] | < 0.05 µM | < 0.1 µM | – | –
C[C@@H]1CN(c2ccc(C#N)c3ncccc23)Cc2c3c(nn21)CN[C@@H](C)C3 [Example I-132, 5-((4R,9S)-4,9-dimethyl-3,4,7,8,9,10-hexahydropyrido[3',4':3,4]pyrazolo[1,5-a]pyrazin-2(1H)-yl)quinoline-8-carbonitrile] | < 0.05 µM | < 0.1 µM | – | –
C[C@@H]1CN(c2ccc(C#N)n3ncc(F)c23)Cc2c3c(nn21)CN(CC(=O)N1CCC(F)(F)C1)[C@@H](C)C3 [Example I-152, 4-((4R,9S)-8-(2-(3,3-difluoropyrrolidin-1-yl)-2-oxoethyl)-4,9-dimethyl-3,4,7,8,9,10-hexahydropyrido[3',4':3,4]pyrazolo[1,5-a]pyrazin-2(1H)-yl)-3-fluoropyrazolo[1,5-a]pyridine-7-carbonitrile] | < 0.05 µM | > 0.1 µM | – | –

The next lines start with results.

IC50 (human TLR7; [1]) | IC50 (human TLR8; [2]) | Compound | IC50 (human TLR7; HEK-Blue hTLR7 IC50 (µM)) | IC50 (human TLR8; HEK-Blue hTLR8 IC50 (µM))
< 0.05 µM | < 0.1 µM | C[C@@H]1CN(c2ccc(C#N)n3ncc(F)c23)Cc2c3c(nn21)CNC(C)(C)C3 [Example I-83, (R)-3-Fluoro-4-(4,9,9-trimethyl-3,4,7,8,9,10-hexahydropyrido[3',4':3,4]pyrazolo [1,5-a]pyrazin-2(1H)-yl)pyrazolo[1,5-a]pyridine-7-carbonitrile] | – | –
< 0.05 µM | < 0.1 µM | C[C@@H]1CN(c2ccc(C#N)n3ncc(F)c23)Cc2c3c(nn21)CC(C)(N)CC3 (single isomer, unassigned) [Example I-71a] | – | –
< 0.05 µM | < 0.1 µM | C[C@@H]1CN(c2ccc(C#N)n3ncc(F)c23)Cc2c3c(nn21)C[C@](C)(N1CCC(O)C1)CC3 (stereo partly drawn) [Example I-187, 3-Fluoro-4-((4R,8R)-8-(3-hydroxypyrrolidin-1-yl)-4,8-dimethyl-3,4,7,8,9,10-hexahydropyrazino[1,2-b]indazol-2(1H)-yl)pyrazolo[1,5-a]pyridine-7-carbonitrile] | – | –
< 0.05 µM | < 0.1 µM | C[C@@H]1CN(c2ccc(C#N)n3ncc(F)c23)Cc2c3c(nn21)CNC(c1cnn(C)c1)C3 (stereo partly drawn) [Example I-91, 3-Fluoro-4-((4R)-4-methyl-9-(1-methyl-1H-pyrazol-4-yl)-3,4,7,8,9,10-hexahydropyrido[3',4':3,4]pyrazolo[1,5-a]pyrazin-2(1H)-yl)pyrazolo[1,5-a]pyridine-7-carbonitrile] | – | –
< 0.05 µM | < 0.1 µM | CC1Cc2nn3c(c2CN1)CN(c1ccc(C#N)n2ncc(F)c12)C[C@H]3C (single isomer, unassigned) [Example I-11b] | – | –
< 0.05 µM | < 0.1 µM | C[C@H]1NCCc2c1nn1c2CN(c2ccc(C#N)n3ncc(F)c23)C[C@H]1CF [Example I-87, 3-Fluoro-4-((4S,7R)-4-(fluoromethyl)-7-methyl-3,4,7,8,9,10-hexahydropyrido [3',4':3,4]pyrazolo[1,5-a]pyrazin-2(1H)-yl)pyrazolo[1,5-a]pyridine-7-carbonitrile] | – | –
